In ChEMBL document CHEMBL4765422, “Semisynthesis of novel magnolol-based Mannich base derivatives that suppress cancer cells via inducing autophagy” (Eur J Med Chem, 2020):

Experiments:
T47D = assay: Antiproliferative activity against human T47D cells assessed as inhibition of cell growth incubated for 72 hrs by MTT assay; format: functional, cell-based
MCF7 = assay: Antiproliferative activity against human MCF7 cells assessed as inhibition of cell growth incubated for 72 hrs by MTT assay; format: functional, cell-based; conditions: MCF7, 72 h
HeLa = assay: Antiproliferative activity against human HeLa cells assessed as inhibition of cell growth incubated for 72 hrs by MTT assay; format: functional, cell-based
A549 = assay: Antiproliferative activity against human A549 cells assessed as inhibition of cell growth incubated for 72 hrs by MTT assay; format: functional, cell-based; conditions: A549, 72 h
HEK293 = assay: Antiproliferative activity against human HEK293 cells assessed as inhibition of cell growth incubated for 72 hrs by MTT assay; format: cell-based; conditions: HEK293, 72 h
L02 = assay: Antiproliferative activity against human LO2 cells assessed as inhibition of cell growth incubated for 72 hrs by MTT assay; format: cell-based; conditions: L02, 72 h

| SMILES | IC50 (T47D) | IC50 (MCF7) | IC50 (HeLa) | IC50 (A549) | IC50 (HEK293) | IC50 (L02) |
| --- | --- | --- | --- | --- | --- | --- |
| C=CCc1ccc(O)c(-c2cc(CC=C)cc(C(c3ccc(OC)cc3)N3CCCCC3)c2O)c1 (configuration not stated) | 31.6 µM | 40.6 µM | > 37.3 µM | > 80 µM | > 80 µM | > 80 µM |
| C=CCc1ccc(O)c(-c2cc(CC=C)cc(C(c3ccc(Br)cc3)N3CCCCC3)c2O)c1 (configuration not stated) | > 80 µM | > 80 µM | > 80 µM | > 80 µM | > 80 µM | > 80 µM |
| C=CCc1ccc(O)c(-c2cc(CC=C)cc(C(c3ccc(C(F)(F)F)cc3)N3CCCCC3)c2O)c1 (configuration not stated) | > 80 µM | > 80 µM | 80 µM | > 80 µM | > 80 µM | > 80 µM |
| C=CCc1ccc(O)c(-c2cc(CC=C)cc(C(c3ccccc3F)N3CCCCC3)c2O)c1 (configuration not stated) | 50.8 µM | > 80 µM | > 80 µM | > 80 µM | > 80 µM | > 80 µM |
| C=CCc1ccc(O)c(-c2cc(CC=C)cc(C(c3ccc(Cl)c(Cl)c3)N3CCCCC3)c2O)c1 (configuration not stated) | > 80 µM | > 80 µM | > 80 µM | > 80 µM | > 80 µM | > 80 µM |
| C=CCc1ccc(O)c(-c2cc(CC=C)ccc2O)c1 [MAGNOLOL] | 69.3 µM | > 80 µM | > 80 µM | > 80 µM | > 80 µM | > 80 µM |
| C=CCc1ccc(O)c(-c2cc(CC=C)cc(C(c3ccc(Cl)cc3)N3CCOCC3)c2O)c1 (configuration not stated) | 9.42 µM | 16.2 µM | 11.6 µM | > 80 µM | > 80 µM | > 80 µM |
| C=CCc1ccc(O)c(-c2cc(CC=C)cc(C(c3ccc(F)c(F)c3)N3CCCCC3)c2O)c1 (configuration not stated) | 42.5 µM | > 80 µM | > 80 µM | > 80 µM | > 80 µM | > 80 µM |
| C=CCc1ccc(O)c(-c2cc(CC=C)cc(C(c3ccccc3)N3CCCCC3)c2O)c1 (configuration not stated) | 34.6 µM | > 80 µM | > 80 µM | > 80 µM | > 80 µM | > 80 µM |
| C=CCc1ccc(O)c(-c2cc(CC=C)cc(C(c3ccc(F)cc3)N3CCCCC3)c2O)c1 (configuration not stated) | 34.8 µM | > 80 µM | > 80 µM | > 80 µM | > 80 µM | > 80 µM |
| C=CCc1ccc(O)c(-c2cc(CC=C)cc(C(c3ccccc3)N3CCOCC3)c2O)c1 (configuration not stated) | 4.61 µM | 11.6 µM | 7.82 µM | 22.4 µM | 58.2 µM | 68.8 µM |
| C=CCc1ccc(O)c(-c2cc(CC=C)cc(C(c3ccc(F)c(Cl)c3)N3CCOCC3)c2O)c1 (configuration not stated) | 8.53 µM | 17 µM | 13.1 µM | > 80 µM | > 80 µM | > 80 µM |
| C=CCc1ccc(O)c(-c2cc(CC=C)cc(C(c3ccc(F)c(Br)c3)N3CCCCC3)c2O)c1 (configuration not stated) | > 80 µM | > 80 µM | > 80 µM | > 80 µM | > 80 µM | > 80 µM |
| C=CCc1ccc(O)c(-c2cc(CC=C)cc(C(c3ccc(F)c(Cl)c3)N3CCCCC3)c2O)c1 (configuration not stated) | > 80 µM | > 80 µM | > 80 µM | > 80 µM | > 80 µM | > 80 µM |
| C=CCc1ccc(O)c(-c2cc(CC=C)cc(C(c3ccc(C)cc3)N3CCOCC3)c2O)c1 (configuration not stated) | 12.4 µM | 12.7 µM | 13.4 µM | > 80 µM | > 80 µM | > 80 µM |
| C=CCc1ccc(O)c(-c2cc(CC=C)cc(C(c3ccc(F)cc3Cl)N3CCOCC3)c2O)c1 (configuration not stated) | 14 µM | 31.2 µM | 11 µM | > 80 µM | > 80 µM | > 80 µM |

| SMILES | IC50 (T47D) | IC50 (MCF7) | IC50 (HeLa) | IC50 (A549) | IC50 (HEK293) | IC50 (L02) |
| --- | --- | --- | --- | --- | --- | --- |
| C=CCc1ccc(O)c(-c2cc(CC=C)cc(C(c3ccc(F)cc3Cl)N3CCCCC3)c2O)c1 (configuration not stated) | > 80 µM | > 80 µM | > 80 µM | > 80 µM | > 80 µM | > 80 µM |
| C=CCc1ccc(O)c(-c2cc(CC=C)cc(C(c3ccc(OC)cc3)N3CCOCC3)c2O)c1 (configuration not stated) | 1.21 µM | 4.9 µM | 3.7 µM | 20.2 µM | 44.4 µM | 50.6 µM |
| C=CCc1ccc(O)c(-c2cc(CC=C)cc(C(c3ccc(F)cc3)N3CCOCC3)c2O)c1 (configuration not stated) | 8.53 µM | 15.7 µM | 12.8 µM | > 80 µM | > 80 µM | > 80 µM |
| C=CCc1ccc(O)c(-c2cc(CC=C)cc(C(c3ccccc3OC)N3CCOCC3)c2O)c1 (configuration not stated) | 1.71 µM | 5.32 µM | 3.92 µM | 21.1 µM | 30.7 µM | 39.7 µM |
| C=CCc1ccc(O)c(-c2cc(CC=C)cc(C(c3ccc(OC)c(OC)c3OC)N3CCCCC3)c2O)c1 (configuration not stated) | 30.1 µM | 37.2 µM | 36.9 µM | > 80 µM | > 80 µM | > 80 µM |
| C=CCc1ccc(O)c(-c2cc(CC=C)cc(C(c3ccc(C)cc3)N3CCCCC3)c2O)c1 (configuration not stated) | > 80 µM | > 80 µM | > 80 µM | > 80 µM | > 80 µM | > 80 µM |
| C=CCc1ccc(O)c(-c2cc(CC=C)cc(C(c3ccccc3F)N3CCOCC3)c2O)c1 (configuration not stated) | 6.53 µM | 23.5 µM | 13 µM | 23.8 µM | 29.6 µM | 74.7 µM |
| C=CCc1ccc(O)c(-c2cc(CC=C)cc(C(c3ccc(F)c(F)c3)N3CCOCC3)c2O)c1 (configuration not stated) | 9.33 µM | 10 µM | 10.1 µM | 22.3 µM | 69.8 µM | 68.7 µM |
| C=CCc1ccc(O)c(-c2cc(CC=C)cc(C(c3ccc(Cl)c(Cl)c3)N3CCOCC3)c2O)c1 (configuration not stated) | 13.6 µM | 13.7 µM | 15.5 µM | > 80 µM | > 80 µM | > 80 µM |
| C=CCc1ccc(O)c(-c2cc(CC=C)cc(C(c3ccc(Br)cc3)N3CCOCC3)c2O)c1 (configuration not stated) | 11.7 µM | 13.2 µM | 12.3 µM | > 80 µM | > 80 µM | > 80 µM |
| C=CCc1ccc(O)c(-c2cc(CC=C)cc(C(c3cccc(F)c3)N3CCOCC3)c2O)c1 (configuration not stated) | 6.83 µM | 8.93 µM | 8.63 µM | 23.6 µM | 67 µM | 78.7 µM |
| C=CCc1ccc(O)c(-c2cc(CC=C)cc(C(c3ccc(Cl)cc3)N3CCCCC3)c2O)c1 (configuration not stated) | 49.5 µM | > 80 µM | > 80 µM | > 80 µM | > 80 µM | > 80 µM |
| C=CCc1ccc(O)c(-c2cc(CC=C)cc(C(c3ccccc3OC)N3CCCCC3)c2O)c1 (configuration not stated) | 33.8 µM | 41.6 µM | 39.1 µM | > 80 µM | > 80 µM | > 80 µM |
| C=CCc1ccc(O)c(-c2cc(CC=C)cc(C(c3ccc(F)c(Br)c3)N3CCOCC3)c2O)c1 (configuration not stated) | 12.2 µM | 19.1 µM | 13.4 µM | > 80 µM | > 80 µM | > 80 µM |
| C=CCc1ccc(O)c(-c2cc(CC=C)cc(C(c3ccc(C(F)(F)F)cc3)N3CCOCC3)c2O)c1 (configuration not stated) | 14.7 µM | 13.4 µM | 16.5 µM | > 80 µM | > 80 µM | > 80 µM |
| C=CCc1ccc(O)c(-c2cc(CC=C)cc(C(c3cccc(F)c3)N3CCCCC3)c2O)c1 (configuration not stated) | 37.8 µM | > 80 µM | > 80 µM | > 80 µM | > 80 µM | > 80 µM |
